Results: publication PMC12446476 (Nature Communications, 2025)
≈ marks a conversion by molar mass, not a printed value. Like-named read-outs stand apart in the source and are kept apart here.

Tested on: non-gonococcal Neisseria
Assay: MIC determination for non-gonococcal Neisseria, agar dilution
Type: cell-based, Neisseria species
Details: read-out: Minimum inhibitory concentration
Source text: The 2024 WHO N. gonorrhoeae reference strains were used for quality control. Only whole MIC doubling dilutions are reported. Clinical breakpoints or the epidemiological cutoff (ECOFF, to indicate azithromycin resistance) from EUCAST (v14.0, https://www.eucast.org/clinical_breakpoints) were used to classify isolates as antimicrobial susceptible or resistant. […] Two times the standard inoculum defined by CLSI was used to establish consistent growth in untreated control samples for some strains. In vitro time-kill assays were performed according to CLSI guidelines[65] using Columbia Broth (BD Difco) supplemented with 1% IsoVitaleX Enrichment (BD). Viable bacterial counts were generated by plating 10-fold serially diluted samples on GC agar plates containing 1% IsoVitaleX Enrichment (BD).

SMILES: Cc1c(CN(C)C(=O)/C=C/c2cnc3c(c2)N[C@H](C)[C@H](O)C(=O)N3)oc2ccccc12 [Debio 1453]
- MIC (Neisseria lactamica 1, Replicate 3): 0.032 µg/mL (≈ 0.0761 µM)
- MIC (Neisseria lactamica 2, Consensus): 0.064 µg/mL (≈ 0.152 µM)
- MIC (Neisseria lactamica 2, Replicate 1): 0.064 µg/mL (≈ 0.152 µM)
- MIC (Neisseria lactamica 2, Replicate 2): 0.064 µg/mL (≈ 0.152 µM)
- MIC (Neisseria lactamica 2, Replicate 3): 0.064 µg/mL (≈ 0.152 µM)
- MIC (Neisseria lactamica 3, Consensus): 0.016 µg/mL (≈ 0.0381 µM)
- MIC (Neisseria lactamica 3, Replicate 1): 0.016 µg/mL (≈ 0.0381 µM)
- MIC (Neisseria lactamica 3, Replicate 2): 0.016 µg/mL (≈ 0.0381 µM)
- MIC (Neisseria lactamica 3, Replicate 3): 0.016 µg/mL (≈ 0.0381 µM)
- MIC (Neisseria lactamica 4, Consensus): 0.064 µg/mL (≈ 0.152 µM)
- MIC (Neisseria lactamica 4, Replicate 1): 0.064 µg/mL (≈ 0.152 µM)
- MIC (Neisseria lactamica 4, Replicate 2): 0.064 µg/mL (≈ 0.152 µM)
- MIC (Neisseria lactamica 4, Replicate 3): 0.064 µg/mL (≈ 0.152 µM)
- MIC (Neisseria lactamica 5, Consensus): 0.016 µg/mL (≈ 0.0381 µM)
- MIC (Neisseria lactamica 5, Replicate 1): 0.032 µg/mL (≈ 0.0761 µM)
- MIC (Neisseria lactamica 5, Replicate 2): 0.016 µg/mL (≈ 0.0381 µM)
- MIC (Neisseria lactamica 5, Replicate 3): 0.016 µg/mL (≈ 0.0381 µM)
- MIC (Neisseria lactamica 6, Consensus): 0.032 µg/mL (≈ 0.0761 µM)
- MIC (Neisseria lactamica 6, Replicate 1): 0.032 µg/mL (≈ 0.0761 µM)
- MIC (Neisseria lactamica 6, Replicate 2): 0.032 µg/mL (≈ 0.0761 µM)
- MIC (Neisseria lactamica 6, Replicate 3): 0.032 µg/mL (≈ 0.0761 µM)
- MIC (Neisseria lactamica 7, Consensus): 0.032 µg/mL (≈ 0.0761 µM)
- MIC (Neisseria lactamica 7, Replicate 1): 0.032 µg/mL (≈ 0.0761 µM)
- MIC (Neisseria lactamica 7, Replicate 2): 0.032 µg/mL (≈ 0.0761 µM)
- MIC (Neisseria lactamica 7, Replicate 3): 0.064 µg/mL (≈ 0.152 µM)
- MIC (Neisseria lactamica 8, Consensus): 0.032 µg/mL (≈ 0.0761 µM)
- MIC (Neisseria lactamica 8, Replicate 1): 0.032 µg/mL (≈ 0.0761 µM)
- MIC (Neisseria lactamica 8, Replicate 2): 0.032 µg/mL (≈ 0.0761 µM)
- MIC (Neisseria lactamica 8, Replicate 3): 0.064 µg/mL (≈ 0.152 µM)
- MIC (Neisseria lactamica 9, Consensus): 0.064 µg/mL (≈ 0.152 µM)
- MIC (Neisseria lactamica 9, Replicate 1): 0.064 µg/mL (≈ 0.152 µM)
- MIC (Neisseria lactamica 9, Replicate 2): 0.032 µg/mL (≈ 0.0761 µM)
- MIC (Neisseria lactamica 9, Replicate 3): 0.064 µg/mL (≈ 0.152 µM)
- MIC (Neisseria lactamica 10, Consensus): 0.032 µg/mL (≈ 0.0761 µM)
- MIC (Neisseria lactamica 10, Replicate 1): 0.032 µg/mL (≈ 0.0761 µM)
- MIC (Neisseria lactamica 10, Replicate 2): 0.016 µg/mL (≈ 0.0381 µM)
- MIC (Neisseria lactamica 10, Replicate 3): 0.032 µg/mL (≈ 0.0761 µM)
- MIC (Neisseria lactamica 11, Consensus): 0.032 µg/mL (≈ 0.0761 µM)
- MIC (Neisseria lactamica 11, Replicate 1): 0.032 µg/mL (≈ 0.0761 µM)
- MIC (Neisseria lactamica 11, Replicate 2): 0.032 µg/mL (≈ 0.0761 µM)
- MIC (Neisseria lactamica 11, Replicate 3): 0.032 µg/mL (≈ 0.0761 µM)
- MIC (Neisseria macacae 1, Consensus): 2 µg/mL (≈ 4.76 µM)
- MIC (Neisseria macacae 1, Replicate 1): 1 µg/mL (≈ 2.38 µM)
- MIC (Neisseria macacae 1, Replicate 2): 2 µg/mL (≈ 4.76 µM)
- MIC (Neisseria macacae 1, Replicate 3): 2 µg/mL (≈ 4.76 µM)
- MIC (Neisseria macacae 2, Consensus): 2 µg/mL (≈ 4.76 µM)
- MIC (Neisseria macacae 2, Replicate 1): 2 µg/mL (≈ 4.76 µM)
- MIC (Neisseria macacae 2, Replicate 2): 2 µg/mL (≈ 4.76 µM)
- MIC (Neisseria macacae 2, Replicate 3): 2 µg/mL (≈ 4.76 µM)
- MIC (Neisseria macacae 3, Consensus): 0.25 µg/mL (≈ 0.595 µM)
- MIC (Neisseria macacae 3, Replicate 1): 0.25 µg/mL (≈ 0.595 µM)
- MIC (Neisseria macacae 3, Replicate 2): 0.25 µg/mL (≈ 0.595 µM)
- MIC (Neisseria macacae 3, Replicate 3): 0.5 µg/mL (≈ 1.19 µM)
- MIC (Neisseria macacae 4, Consensus): 2 µg/mL (≈ 4.76 µM)
- MIC (Neisseria macacae 4, Replicate 1): 1 µg/mL (≈ 2.38 µM)
- MIC (Neisseria macacae 4, Replicate 2): 2 µg/mL (≈ 4.76 µM)
- MIC (Neisseria macacae 4, Replicate 3): 2 µg/mL (≈ 4.76 µM)
- MIC (Neisseria macacae 5, Consensus): 2 µg/mL (≈ 4.76 µM)
- MIC (Neisseria macacae 5, Replicate 1): 2 µg/mL (≈ 4.76 µM)
- MIC (Neisseria macacae 5, Replicate 2): 2 µg/mL (≈ 4.76 µM)
- MIC (Neisseria macacae 5, Replicate 3): 2 µg/mL (≈ 4.76 µM)
- MIC (Neisseria macacae 6, Consensus): 0.5 µg/mL (≈ 1.19 µM)
- MIC (Neisseria macacae 6, Replicate 1): 0.25 µg/mL (≈ 0.595 µM)
- MIC (Neisseria macacae 6, Replicate 2): 0.5 µg/mL (≈ 1.19 µM)
- MIC (Neisseria macacae 6, Replicate 3): 0.5 µg/mL (≈ 1.19 µM)
- MIC (Neisseria macacae 7, Consensus): 0.5 µg/mL (≈ 1.19 µM)
- MIC (Neisseria macacae 7, Replicate 1): 0.25 µg/mL (≈ 0.595 µM)
- MIC (Neisseria macacae 7, Replicate 2): 0.5 µg/mL (≈ 1.19 µM)
- MIC (Neisseria macacae 7, Replicate 3): 0.5 µg/mL (≈ 1.19 µM)
- MIC (Neisseria meningitidis gr 29E, Consensus): 0.064 µg/mL (≈ 0.152 µM)
- MIC (Neisseria meningitidis gr 29E, Replicate 1): 0.064 µg/mL (≈ 0.152 µM)
- MIC (Neisseria meningitidis gr 29E, Replicate 2): 0.032 µg/mL (≈ 0.0761 µM)
- MIC (Neisseria meningitidis gr 29E, Replicate 3): 0.064 µg/mL (≈ 0.152 µM)
- MIC (Neisseria meningitidis gr A, Consensus): 0.032 µg/mL (≈ 0.0761 µM)
- MIC (Neisseria meningitidis gr A, Replicate 1): 0.032 µg/mL (≈ 0.0761 µM)
- MIC (Neisseria meningitidis gr A, Replicate 2): 0.032 µg/mL (≈ 0.0761 µM)
- MIC (Neisseria meningitidis gr A, Replicate 3): 0.032 µg/mL (≈ 0.0761 µM)
- MIC (Neisseria meningitidis gr B, Consensus): 0.016 µg/mL (≈ 0.0381 µM)
- MIC (Neisseria meningitidis gr B, Replicate 1): 0.016 µg/mL (≈ 0.0381 µM)
- MIC (Neisseria meningitidis gr B, Replicate 2): 0.016 µg/mL (≈ 0.0381 µM)
- MIC (Neisseria meningitidis gr B, Replicate 3): 0.016 µg/mL (≈ 0.0381 µM)
- MIC (Neisseria meningitidis gr C, Consensus): 0.032 µg/mL (≈ 0.0761 µM)
- MIC (Neisseria meningitidis gr C, Replicate 1): 0.032 µg/mL (≈ 0.0761 µM)
- MIC (Neisseria meningitidis gr C, Replicate 2): 0.032 µg/mL (≈ 0.0761 µM)
- MIC (Neisseria meningitidis gr C, Replicate 3): 0.032 µg/mL (≈ 0.0761 µM)
- MIC (Neisseria meningitidis gr W, Consensus): 0.008 µg/mL (≈ 0.019 µM)
- MIC (Neisseria meningitidis gr W, Replicate 1): 0.008 µg/mL (≈ 0.019 µM)
- MIC (Neisseria meningitidis gr W, Replicate 2): 0.008 µg/mL (≈ 0.019 µM)
- MIC (Neisseria meningitidis gr W, Replicate 3): 0.008 µg/mL (≈ 0.019 µM)
- MIC (Neisseria meningitidis gr X, Consensus): 0.016 µg/mL (≈ 0.0381 µM)
- MIC (Neisseria meningitidis gr X, Replicate 1): 0.016 µg/mL (≈ 0.0381 µM)
- MIC (Neisseria meningitidis gr X, Replicate 2): 0.016 µg/mL (≈ 0.0381 µM)
- MIC (Neisseria meningitidis gr X, Replicate 3): 0.016 µg/mL (≈ 0.0381 µM)
- MIC (Neisseria meningitidis gr Y, Consensus): 0.008 µg/mL (≈ 0.019 µM)
- MIC (Neisseria meningitidis gr Y, Replicate 1): 0.016 µg/mL (≈ 0.0381 µM)
- MIC (Neisseria meningitidis gr Y, Replicate 2): 0.008 µg/mL (≈ 0.019 µM)
- MIC (Neisseria meningitidis gr Y, Replicate 3): 0.008 µg/mL (≈ 0.019 µM)
- MIC (Neisseria meningitidis gr Z, Consensus): 0.016 µg/mL (≈ 0.0381 µM)
- MIC (Neisseria meningitidis gr Z, Replicate 1): 0.032 µg/mL (≈ 0.0761 µM)
- MIC (Neisseria meningitidis gr Z, Replicate 2): 0.016 µg/mL (≈ 0.0381 µM)
- MIC (Neisseria meningitidis gr Z, Replicate 3): 0.016 µg/mL (≈ 0.0381 µM)
- MIC (Neisseria mucosa 1, Consensus): 0.25 µg/mL (≈ 0.595 µM)
- MIC (Neisseria mucosa 1, Replicate 1): 0.25 µg/mL (≈ 0.595 µM)
- MIC (Neisseria mucosa 1, Replicate 2): 0.5 µg/mL (≈ 1.19 µM)
- MIC (Neisseria mucosa 1, Replicate 3): 0.25 µg/mL (≈ 0.595 µM)
- MIC (Neisseria mucosa 2, Replicate 1): 0.064 µg/mL (≈ 0.152 µM)
- MIC (Neisseria mucosa 3, Consensus): 0.032 µg/mL (≈ 0.0761 µM)
- MIC (Neisseria mucosa 3, Replicate 1): 0.032 µg/mL (≈ 0.0761 µM)
- MIC (Neisseria mucosa 3, Replicate 2): 0.032 µg/mL (≈ 0.0761 µM)
- MIC (Neisseria mucosa 3, Replicate 3): 0.064 µg/mL (≈ 0.152 µM)
- MIC (Neisseria mucosa 4, Consensus): 1 µg/mL (≈ 2.38 µM)
